Assay results reported in patent publication US9486467B2, “Method of treating colorectal cancer that expresses a mutated APC gene by administering erythromycin or tylosin” (RAMOT AT TEL-AVIV UNIVERSITY LTD., priority 2006, dated 2016).
Entries after “also recorded” stand apart in the source; their conditions may differ.

Experiments:
[1] = system: APC hotspot stop codon mutations; experiment: Dual luciferase reporter plasmid system for APC stop codon readthrough; assay type: cell-based; details: HCT116 colorectal cancer cells; APC hotspots 1061, 1554, 1450; tylosin 4-80 μg/ml
Procedure: HCT116 CRC cells (control cells carrying a wild-type APC) were cultured in Dulbecco's modified Eagle's medium (DMEM) supplemented with 10% fetal calf serum (FCS) and 100 units/ml penicillin or streptomycin. Cells were kept in a humidified, 5% CO2 atmosphere at 37° C. Cells were transfected using JetPEI (PolyPlus Transfection). The cells were transfected with 0.5 μg of the described construct, and 48 hours later, the levels of luciferase were measured with the Luciferase assay kit (Promega, USA), according to the manufacturer's instructions.
A dual luciferase reporter plasmid system was used to measure the effect of tylosin on readthrough of APC hotspot stop codon mutations in colorectal tissue culture cells. In this system, the Renilla luciferase reporter gene is located upstream of the hotspot, and the firefly luciferase reporter gene is located downstream of the hotspot in the APC wild-type or mutated sequences, and both genes are under the transcriptional control of the APC promoter (FIG. 2a). The Renilla luciferase gene serves as an internal normalization control for transfection efficiency, mRNA abundance and the levels of translation initiation, since translation of both enzymes originates from the same translation initiation signal. Following normalization, the differences in firefly luciferase activities reflect the frequency of stop codon readthrough. Constructs containing either wild-type or the APC mutated sequence at the APC hotspot codons 1061 or 1554 were transfected into HCT116 colorectal cancer cells grown in the presence of varying amounts of antibiotics of the macrolide family.

β-catenin/Tcf signaling = experiment: pTOPFLASH luciferase reporter of β-catenin/Tcf-mediated transcription; assay type: cell-based; details: CX-1 CRC cells (stop mutation in APC hotspot 1554); 8 μg/ml tylosin; 48 h after transfection
Procedure: Cells were maintained as described above. Cells were transfected with 0.5 μg of pTOPFLASH and 0.05 μg Renilla (Promega, USA). Forty-eight hours later, the levels of luciferase were measured by using the Luciferase assay kit (Promega, USA).
Colorectal cell lines show high levels of β-catenin/Tcf-mediated transcription due to mutations that lead to over-activation of the Wnt signaling pathway. To measure the effect of tylosin on levels of β-catenin/Tcf-mediated transcription, CX-1 CRC cells containing a stop mutation in APC hotspot 1554 were transfected with pTOPFLASH, a luciferase reporter plasmid that is widely used for measuring transcriptional activity of Tcf and β-catenin (pTOPFLASH contains multimerized Tcf-binding sites linked to a luciferase reporter).

HT-29 CRC cells [2] = experiment: HT-29 CRC cell tumorigenicity in nude mice, tylosin in drinking water; assay type: in vivo; details: 0.4 μg/ml tylosin in the drinking water
Procedure: Six female Nude mice (SCID) were injected with 1×10^7 HT-29 cells. For fourteen days treated groups were fed a normal mouse diet and received drinking water containing 0.4 mg/ml of tylosin. The control group received regular drinking water. Following fourteen days, the mice were sacrificed and the tumors were removed and weighed.
Truncation of APC correlates with tumor formation (15). The present inventor predicted that restoration of functional, full-length APC protein in a cell line containing only truncated APC would lead to a decrease in tumorigenesis. 1×10^7 HT-29 CRC cells containing a hotspot mutation at codon 1554 of APC were injected into twelve nude SCID mice. The treated mice group (six mice) received 0.4 μg/ml tylosin in the drinking water. […] Following fourteen days of receiving drinking water with or without tylosin, the mice were sacrificed and the tumor was removed. The tumors were weighed and the tumor mass of the tylosin-treated mice was, on average, approximately 40% lower than that of the control group (FIG. 4b).

HT-29 CRC cells [3] = experiment: H&E histology of tumors from control and tylosin-treated mice; assay type: in vivo; details: tumor sections of tylosin-treated mice versus control
From the text: Tumor sections from control and treated mice were stained with H&E stain. The slides were examined by a professional pathologist.
Tumor sections from control and tylosin-treated mice were stained with Hematoxylin and Eosin (H&E) stain, a stain used routinely for tissue sections, and were examined by a professional pathologist.

APC = experiment: Anti-APC immunoblot of tumor lysates from treated mice; assay type: in vivo; details: tumors of mice treated with 0.8 mg/ml, 0.4 mg/ml tylosin versus NT, HCT116 wild-type APC as size marker
Procedure: Tumors from control and treated mice were lysed, run on an SDS-PAGE gel, and transferred to a nitrocellulose membrane. The membrane was incubated with an anti-APC antibody (oncogene APC AB-2).

Compound: CC[C@H]1OC(=O)[C@H](C)[C@@H](O[C@H]2C[C@@](C)(OC)[C@@H](O)[C@H](C)O2)[C@H](C)[C@@H](O[C@@H]2O[C@H](C)C[C@H](N(C)C)[C@H]2O)[C@](C)(O)C[C@@H](C)C(=O)[C@H](C)[C@@H](O)[C@]1(C)O [erythromycin, Erythromycin]
- APC stop codon readthrough (firefly luciferase normalized to Renilla) [1]: more moderate levels of stop codon readthrough

Compound: CC[C@H]1OC(=O)C[C@@H](O)[C@H](C)[C@@H](O[C@@H]2O[C@H](C)[C@@H](O[C@H]3C[C@@](C)(O)[C@@H](O)[C@H](C)O3)[C@H](N(C)C)[C@H]2O)[C@@H](CC=O)C[C@@H](C)C(=O)/C=C/C(C)=C/[C@@H]1CO[C@@H]1O[C@H](C)[C@@H](O)[C@@H](OC)[C@H]1OC [tylosin]
- APC stop codon readthrough (firefly luciferase normalized to Renilla) [1]: significant levels of APC stop codon readthrough; also recorded: higher levels of readthrough compared to erythromycin, spiramycin, and gentamycin
- reduction in β-catenin/Tcf/LEF transcriptional signaling (β-catenin/Tcf signaling): approximately 50%
- tumor size versus control mice (HT-29 CRC cells [2]; nude SCID mice injected with 1×10^7 HT-29 cells, FIG. 4: ten days post-injection): reduced tumor size compared with the control mice; also recorded: smaller compared to that of the control group
- tumor mass lower than that of the control group, on average (HT-29 CRC cells [2]; nude SCID mice, HT-29 cells, fourteen days): approximately 40%
- blood supply to the tumor (H&E stain) (HT-29 CRC cells [3]): not affected
- tumor histology (H&E stain) (HT-29 CRC cells [3]): necrosis and death of tumor cells
- expression of full-length APC in tumors (anti-APC antibodies) (APC): a higher amount of tylosin increased the expression of the full-length protein accordingly
- expression of full-length APC in tumors (anti-APC antibodies) (APC; listed as Tylosin): expression of full-length APC

Compound: Spiramycin
- APC stop codon readthrough (firefly luciferase normalized to Renilla) [1]: more moderate levels of stop codon readthrough

Compound: gentamycin
- APC stop codon readthrough (firefly luciferase normalized to Renilla) [1]: more moderate levels of stop codon readthrough
